Read-outs that look alike come from different tables or passages of the source.
Tests used:
Type in all cases: cell-based
human D2R long isoform [1] = molecular target: T1, human D2R long isoform (Homo sapiens, UniProt P14416); experiment: HitHunter cAMP assay, inhibition of forskolin-stimulated cAMP, agonist mode
T1 construct: gene DRD2; full-length long isoform stably expressed in CHO-K1 cells from DiscoverX, HitHunter cAMP assay
From the text: HitHunter cAMP assay, inhibition of forskolin-stimulated cAMP, agonist mode on human D2R long isoform

[2] = molecular target: T2, D2R long isoform (PathHunter) (Homo sapiens, UniProt P14416); experiment: PathHunter beta-arrestin recruitment, agonist mode
T2 construct: gene DRD2; long isoform in CHO-K1 PathHunter cells (DiscoverX), beta-galactosidase enzyme-fragment complementation with beta-arrestin; reporter tags not detailed
T2 sequence (P14416 whole entry, the tested form may be a part, canonical isoform): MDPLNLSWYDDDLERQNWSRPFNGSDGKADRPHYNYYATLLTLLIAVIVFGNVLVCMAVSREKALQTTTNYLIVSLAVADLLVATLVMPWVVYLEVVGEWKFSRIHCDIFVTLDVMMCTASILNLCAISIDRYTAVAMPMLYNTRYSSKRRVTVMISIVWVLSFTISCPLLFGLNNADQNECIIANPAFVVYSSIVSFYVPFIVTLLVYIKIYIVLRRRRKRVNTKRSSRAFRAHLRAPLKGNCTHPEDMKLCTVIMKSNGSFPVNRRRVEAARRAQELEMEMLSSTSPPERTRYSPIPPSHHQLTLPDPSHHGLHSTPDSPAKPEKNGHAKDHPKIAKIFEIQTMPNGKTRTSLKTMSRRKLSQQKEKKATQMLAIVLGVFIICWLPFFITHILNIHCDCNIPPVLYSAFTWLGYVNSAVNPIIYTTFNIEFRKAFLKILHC
From the text: PathHunter beta-arrestin recruitment, agonist mode on D2R long isoform (PathHunter)

human D2R long isoform [3] = molecular target: T1, human D2R long isoform; experiment: antagonism of D2R cAMP and beta-arrestin signaling (data not shown); conditions: CHO-K1
[4] = read-out: cAMP inhibition assay / EC50 (μM ± SEM)
[5] = read-out: cAMP inhibition assay / EC50 (μM ± S.E.M.)

T1 sequence (P14416 whole entry, canonical isoform): as the sequence (P14416 whole entry, the tested form may be a part, canonical isoform) above

| EC50 (human D2R long isoform [1]; [4]) [µM] | EC50 [2] [µM] | EC50 (human D2R long isoform [1]; [5]) [µM] | Compound | antagonism of D2R cAMP and beta-arrestin signaling (data not shown) (human D2R long isoform [3]) |
| --- | --- | --- | --- | --- |
| 2.2 ± 0.6 |  |  | Oc1c(CN2CCN(c3ccccn3)CC2)cc(Cl)c2cccnc12 [compound 1, MLS1547] |  |
| 0.3 ± 0.09 | 0.9 ± 0.3 |  | Oc1c(CN2CCN(c3ccccn3)CC2)ccc2cccnc12 [compound 2] |  |
| 7.9 ± 2.1 |  |  | Oc1c(CN2CCN(c3ccccn3)CC2)cc(Br)c2cccnc12 [compound 3] |  |
| 13.4 ± 11.7 |  |  | COc1c(CN2CCN(c3ccccn3)CC2)cc(Cl)c2cccnc12 [compound 4] |  |
| 6.6 ± 5.5 | 7.3 ± 1.8 |  | Clc1c(CN2CCN(c3ccccn3)CC2)ccc2cccnc12 [compound 7] |  |
| 0.7 ± 0.7 |  |  | c1ccc(N2CCN(Cc3cccc4ccccc34)CC2)nc1 [compound 12] |  |
|  |  | 3.5 ± 3.4 | Oc1c(CN2CCN(c3cnccn3)CC2)cc(Cl)c2cccnc12 [compound 18] |  |
|  | 0.5 ± 0.3 | 0.7 ± 0.2 | Oc1c(CN2CCN(c3ncccn3)CC2)cc(Cl)c2cccnc12 [compound 19] |  |
|  |  | 2.8 ± 1.2 | Oc1c(CN2CCN(c3ccccc3)CC2)cc(Cl)c2cccnc12 [compound 23] |  |
|  |  |  | Oc1c(CN2CCN(C3CCCCC3)CC2)cc(Cl)c2cccnc12 [compound 24] | compounds with cyclohexane substituents retained binding affinity for the D2R |
|  | > 39 |  | c1cncc(N2CCN(Cc3ccc4cc[nH]c4c3)CC2)c1 [compound 25] |  |
|  | 7.7 ± 0.3 | 13.3 ± 8.6 | c1cncc(N2CCN(Cc3cccc4ccccc34)CC2)c1 [compound 28] |  |
|  | 24.8 ± 15.5 |  | c1ccc2cc(CN3CCN(c4cnccn4)CC3)ccc2c1 [compound 37] |  |
|  |  | 27.3 ± 18.2 | c1ccc2c(CN3CCN(c4cnccn4)CC3)cccc2c1 [compound 38] |  |
|  | 0.1 ± 0.01 | 0.04 ± 0.01 | c1cnc(N2CCN(Cc3ccc4cc[nH]c4c3)CC2)nc1 [compound 43] |  |
|  | 1 ± 0.2 | 0.6 ± 0.5 | c1cnc(N2CCN(Cc3cc4ccccc4[nH]3)CC2)nc1 [compound 44] |  |
|  | 2.6 ± 1.1 | 0.8 ± 0.1 | c1cnc(N2CCN(Cc3ccc4ccccc4c3)CC2)nc1 [compound 45] |  |
|  | 14.5 ± 1.5 | 8.5 ± 4 | c1cnc(N2CCN(Cc3cccc4ccccc34)CC2)nc1 [compound 46] |  |
|  |  |  | c1cc2ccc(CN3CCN(C4CCCCC4)CC3)cc2[nH]1 [compound 50] | compounds with cyclohexane substituents retained binding affinity for the D2R |

Source: article PMC5826336 (Frontiers in Synaptic Neuroscience, 2018)
